According to article PMC3236808 (2011):

Target: PRMT1 (Rattus norvegicus, UniProt Q63009)
Test: scintillation proximity assay of 3H-SAM methylation of biotinylated H4 peptide
Assay type: biochemical

Sequence of PRMT1 (Q63009 whole entry): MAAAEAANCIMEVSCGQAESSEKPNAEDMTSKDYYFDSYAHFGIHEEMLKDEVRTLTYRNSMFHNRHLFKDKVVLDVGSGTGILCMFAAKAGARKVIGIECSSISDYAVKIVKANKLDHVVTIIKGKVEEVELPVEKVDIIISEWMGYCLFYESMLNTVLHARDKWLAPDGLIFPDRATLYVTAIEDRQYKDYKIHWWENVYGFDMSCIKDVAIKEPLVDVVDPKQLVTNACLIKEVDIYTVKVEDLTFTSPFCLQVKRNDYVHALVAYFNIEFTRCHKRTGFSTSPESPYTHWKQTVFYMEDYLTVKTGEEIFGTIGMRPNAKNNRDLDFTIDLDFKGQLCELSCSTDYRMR

## Nc1ncnc2c1ncn2[C@@H]1O[C@H](CSCC[C@H](N)C(=O)O)[C@@H](O)[C@H]1O [SAH, S-adenosyl-L-homocysteine]
  IC50: 300 nM
